According to article PMC11269756, “A ligand discovery toolbox for the WWE domain family of human E3 ligases” (Communications Biology, 2024):
Several values for one entry are separate records, joined by “and”; a condition that tells them apart may be missing. Equal values may be shown once. Entries after “also recorded” stand apart in the source; their conditions may differ.

How the values were obtained:
Type in all cases: binding
[1] = biological target: T1, HUWE1 WWE domain (Homo sapiens, UniProt Q7Z6Z7); assay: 19F NMR displacement assay with 2F-ATP (1) reporter, HUWE1; details: 100 µM reporter, 0.5 µM protein, competitor up to 1 mM
T1 construct: HUWE1 (Uniprot ID: Q7Z6Z7, residues 1611–1700); His6-TEV site (N, cleaved yes); made in house; host or cells: E. coli BL21 (DE3) pRARE2
T1 sequence (Q7Z6Z7 1611-1700): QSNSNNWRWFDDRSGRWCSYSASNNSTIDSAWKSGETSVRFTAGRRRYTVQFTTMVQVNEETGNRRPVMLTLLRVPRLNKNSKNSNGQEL

[2] = biological target: T1, HUWE1 WWE domain; assay: 15N-HSQC NMR Kd titration, HUWE1 WWE domain; details: 15N-HSQC-NMR titration, mean of selected cross peaks ± SD
Source text: (§1) Protein-observed NMR using isotopically labeled proteins has emerged as one of the most sensitive and widely employed methods for fragment-based screening. Our objective was to generate ^15N-labeled proteins of WWE domain family members, thereby enabling ^15N-HSQC NMR studies. This approach provides a protein-based fragment screening assay to identify and orthogonally validate binders for the WWE domain family proteins. We conducted NMR-based Kd determination assays for HUWE1, DTX1, RNF146, TRIP12, and DTX2 (Fig. 2c–f, Fig. S3). The small size of the WWE domain constructs (10–20 kDa) yielded NMR spectra with well-resolved individual peaks when analyzed on a 600 MHz spectrometer. This facilitated the determination of Kd values for ligands in the fast-exchange regime by monitoring chemical shift perturbations in the ligand titration. […] The adenosine-based ligands were titrated in the range of 62.5 µM to 2 mM for each WWE domain protein. However, due to resource intensive preparation, iso-ADPr was only titrated up to 500 µM. We then plotted the Δδ chemical shifts and ligand concentrations to determine a saturation curve. For each Kd determination, the chemical shifts of at least two separate peaks were analyzed and reported as the mean with standard deviation (Table 1, Figs. S4–7).
(§2) Titration curves were calculated as previously described.
Compound hit confirmation was carried out in single compound samples using the same conditions and parameters as for compound mixtures.

[3] = biological target: T2, TRIP12 WWE domain (isoform 2) (Homo sapiens, UniProt Q14669); assay: 15N-HSQC NMR Kd titration, TRIP12 WWE domain; details: 15N-HSQC-NMR titration, mean of selected cross peaks ± SD
T2 construct: TRIP12-2 (Uniprot ID: Q14669, residues 759–847); His6-TEV site (N, cleaved yes); made in house; host or cells: E. coli BL21 (DE3) pRARE2
T2 sequence (Q14669 with tags, fused parts or gaps): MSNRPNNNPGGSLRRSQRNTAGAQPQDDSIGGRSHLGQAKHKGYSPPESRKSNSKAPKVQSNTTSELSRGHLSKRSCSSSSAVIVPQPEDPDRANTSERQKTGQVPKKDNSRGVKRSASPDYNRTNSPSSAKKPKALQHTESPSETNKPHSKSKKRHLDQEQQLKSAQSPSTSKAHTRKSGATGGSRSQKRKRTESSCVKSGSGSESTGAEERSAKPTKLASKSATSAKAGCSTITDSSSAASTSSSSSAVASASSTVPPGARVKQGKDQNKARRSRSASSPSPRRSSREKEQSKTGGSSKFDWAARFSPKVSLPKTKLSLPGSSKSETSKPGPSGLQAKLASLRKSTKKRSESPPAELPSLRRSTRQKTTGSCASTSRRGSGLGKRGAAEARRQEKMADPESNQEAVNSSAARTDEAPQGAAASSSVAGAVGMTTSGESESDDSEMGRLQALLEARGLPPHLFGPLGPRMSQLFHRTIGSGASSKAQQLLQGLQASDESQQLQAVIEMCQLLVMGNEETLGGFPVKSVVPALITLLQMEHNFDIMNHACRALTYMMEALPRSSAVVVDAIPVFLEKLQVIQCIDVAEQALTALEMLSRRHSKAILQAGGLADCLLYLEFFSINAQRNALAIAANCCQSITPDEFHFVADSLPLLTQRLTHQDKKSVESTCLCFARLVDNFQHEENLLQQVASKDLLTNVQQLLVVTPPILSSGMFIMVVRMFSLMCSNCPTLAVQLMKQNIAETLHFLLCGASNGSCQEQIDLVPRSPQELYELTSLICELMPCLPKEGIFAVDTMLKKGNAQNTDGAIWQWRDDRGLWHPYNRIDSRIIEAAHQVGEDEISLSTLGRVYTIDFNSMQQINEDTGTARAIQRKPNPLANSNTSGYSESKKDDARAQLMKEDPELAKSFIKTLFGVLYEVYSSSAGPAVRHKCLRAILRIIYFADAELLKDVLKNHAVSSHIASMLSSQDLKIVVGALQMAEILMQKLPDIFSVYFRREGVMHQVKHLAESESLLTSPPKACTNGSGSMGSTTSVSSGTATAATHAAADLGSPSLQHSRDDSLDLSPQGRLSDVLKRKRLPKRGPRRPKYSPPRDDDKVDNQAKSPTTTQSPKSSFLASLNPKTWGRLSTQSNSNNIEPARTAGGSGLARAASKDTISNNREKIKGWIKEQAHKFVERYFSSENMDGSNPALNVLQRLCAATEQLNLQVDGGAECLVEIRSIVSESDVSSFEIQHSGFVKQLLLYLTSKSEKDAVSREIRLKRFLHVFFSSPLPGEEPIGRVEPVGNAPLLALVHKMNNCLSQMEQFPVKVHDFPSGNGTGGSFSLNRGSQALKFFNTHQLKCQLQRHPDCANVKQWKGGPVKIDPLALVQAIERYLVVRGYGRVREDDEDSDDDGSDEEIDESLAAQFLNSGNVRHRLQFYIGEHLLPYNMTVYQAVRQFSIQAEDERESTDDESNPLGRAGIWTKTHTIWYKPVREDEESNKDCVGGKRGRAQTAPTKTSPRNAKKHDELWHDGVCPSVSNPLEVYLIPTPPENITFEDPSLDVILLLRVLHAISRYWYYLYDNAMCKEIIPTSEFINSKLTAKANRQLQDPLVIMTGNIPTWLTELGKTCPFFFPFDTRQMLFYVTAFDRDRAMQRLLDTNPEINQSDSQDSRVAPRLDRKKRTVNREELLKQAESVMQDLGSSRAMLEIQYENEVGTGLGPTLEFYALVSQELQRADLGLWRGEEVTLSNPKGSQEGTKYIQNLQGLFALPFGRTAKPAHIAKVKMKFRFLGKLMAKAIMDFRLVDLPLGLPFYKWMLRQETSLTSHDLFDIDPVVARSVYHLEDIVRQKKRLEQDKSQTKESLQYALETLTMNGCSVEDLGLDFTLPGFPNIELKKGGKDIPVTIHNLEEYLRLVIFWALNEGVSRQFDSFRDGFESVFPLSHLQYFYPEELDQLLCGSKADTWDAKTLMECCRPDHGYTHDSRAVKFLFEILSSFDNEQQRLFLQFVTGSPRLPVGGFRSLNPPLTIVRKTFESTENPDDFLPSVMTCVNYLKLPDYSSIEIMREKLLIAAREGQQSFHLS
Source text: as §1, §2

[4] = biological target: T3, DTX1 WWE domain (Homo sapiens, UniProt Q86Y01); assay: 15N-HSQC NMR Kd titration, DTX1 WWE domains; details: 15N-HSQC-NMR titration, mean of selected cross peaks ± SD
T3 construct: DTX1 (Uniprot ID: Q86Y01, residues 21–184); His6-TEV site (N, cleaved yes); made in house; host or cells: E. coli BL21 (DE3) pRARE2
T3 sequence (Q86Y01 21-184): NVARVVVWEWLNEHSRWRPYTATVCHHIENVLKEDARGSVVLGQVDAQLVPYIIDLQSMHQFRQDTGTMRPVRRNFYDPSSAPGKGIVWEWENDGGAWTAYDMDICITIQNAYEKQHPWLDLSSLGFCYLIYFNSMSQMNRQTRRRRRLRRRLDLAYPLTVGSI
Source text: as §1, §2

[5] = biological target: T4, DTX2 WWE domain (Homo sapiens, UniProt Q86UW9); assay: 19F NMR displacement assay with 2F-ATP (1) reporter, DTX2; details: 100 µM reporter, 0.5 µM protein, competitor up to 1 mM
T4 construct: DTX2 (Uniprot ID: Q86UW9, residues 3–189); His6-TEV site (N, cleaved yes); made in house; host or cells: E. coli BL21 (DE3) pRARE2
T4 sequence (Q86UW9 3-189): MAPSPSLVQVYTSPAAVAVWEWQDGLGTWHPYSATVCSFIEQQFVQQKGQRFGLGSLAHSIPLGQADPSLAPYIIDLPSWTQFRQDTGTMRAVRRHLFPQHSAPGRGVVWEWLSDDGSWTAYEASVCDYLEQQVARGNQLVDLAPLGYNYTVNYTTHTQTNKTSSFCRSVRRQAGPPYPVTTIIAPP

[6] = biological target: T4, DTX2 WWE domain; assay: 15N-HSQC NMR Kd titration, DTX2 WWE domains; details: 15N-HSQC-NMR titration, mean of selected cross peaks ± SD
Source text: as §1, §2

[7] = biological target: T5, RNF146 WWE domain (Homo sapiens, UniProt Q9NTX7); assay: 15N-HSQC NMR Kd titration, RNF146 WWE domain; details: 15N-HSQC-NMR titration, mean of selected cross peaks ± SD
T5 construct: RNF146 (Uniprot ID: Q9NTX7, residues 100-184); His6-TEV site (N, cleaved yes); made in house; host or cells: E. coli BL21 (DE3) pRARE2
T5 sequence (Q9NTX7 100-184): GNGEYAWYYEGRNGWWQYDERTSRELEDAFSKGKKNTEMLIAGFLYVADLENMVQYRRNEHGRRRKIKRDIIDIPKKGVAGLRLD

Compound: O=C(O)CN1C(=O)c2ccccc2C1=O [compound (3), N-(Carboxymethyl)-phthalimide]
- displacement of 19F reporter 2F-ATP (1) [1]: no displacement
- Kd [2]: 1760 µM

Compound: Nc1ncnc2c1ncn2[C@@H]1O[C@H](COP(=O)(O)OP(=O)(O)OP(=O)(O)O)[C@@H](O)[C@H]1O [ATP]
- displacement of 19F reporter 2F-ATP (1) [1]: increasing signal intensity
- Kd [3]: 316 ± 22 µM
- Kd [4]: 659 ± 294 µM
- Kd [2]: 59 ± 5 µM
- displacement of 19F reporter 2F-ATP (1) [5]: too weak for displacement
- Kd [6]: 802 ± 84 µM

Compound: Nc1nc(F)nc2c1ncn2[C@@H]1O[C@H](COP(=O)(O)OP(=O)(O)OP(=O)(O)O)[C@@H](O)[C@H]1O [2F-ATP 1]
- Kd [3]: 127 ± 9 µM
- Kd [4]: 329 ± 115 µM
- Kd [2]: 30 µM and 27 µM
- Kd [7]: 49 ± 18 µM
- Kd [6]: > 2000 µM

Compound: O=C(O)CN1C(=O)c2ccc(C(=O)O)cc2C1=O [compound (4)]
- displacement of 19F reporter 2F-ATP (1) [1]: clear dose-dependent displacement; also recorded: showed displacement
- Kd [2]: 202 µM

Compound: Nc1ncnc2c1ncn2[C@@H]1O[C@H](COP(=O)(O)OP(=O)(O)OP(=O)(O)O)[C@@H](O)[C@H]1F [2’F-ATP 2]
- Kd [3]: 125 ± 20 µM
- Kd [4]: 550 ± 111 µM
- Kd [2]: 15 ± 2 µM
- Kd [7]: 114 ± 31 µM
- Kd [6]: 455 ± 17 µM
